Structures can show the parent of a compound that is named as a salt.
Key:
[1] = molecular target: T1, human sphingosine kinase type 1 (hSPHK1) (Homo sapiens, UniProt Q9NYA1); test: Sphingosine kinase assay, recombinant human SPHK1 ([32P]S1P product, scintillation counting); assay type: biochemical; conditions: read-out: activity hSPHK1 (range estimate of KI)
T1 construct: made in house; host or cells: Sf9 insect cells (baculovirus)
In short: (§1)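 Activity read as [32P]S1P bound to cation exchange paper and quantified by scintillation counting, standard kinase protocol. Enzyme sources: human SPHK2 partially purified from baculovirus-infected Sf9 lysates; human SPHK1 as crude cleared Sf9 lysate.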

[2] = molecular target: T2, human sphingosine kinase type 2 (hSPHK2) (Homo sapiens, UniProt Q9NRA0); test: Sphingosine kinase assay, recombinant human SPHK2 ([32P]S1P product, scintillation counting); assay type: biochemical; conditions: read-out: activity hSPHK2 (range estimate of KI)
T2 construct: purchased; host or cells: Sf9 insect cells (baculovirus)
T2 sequence (Q9NRA0 1-654): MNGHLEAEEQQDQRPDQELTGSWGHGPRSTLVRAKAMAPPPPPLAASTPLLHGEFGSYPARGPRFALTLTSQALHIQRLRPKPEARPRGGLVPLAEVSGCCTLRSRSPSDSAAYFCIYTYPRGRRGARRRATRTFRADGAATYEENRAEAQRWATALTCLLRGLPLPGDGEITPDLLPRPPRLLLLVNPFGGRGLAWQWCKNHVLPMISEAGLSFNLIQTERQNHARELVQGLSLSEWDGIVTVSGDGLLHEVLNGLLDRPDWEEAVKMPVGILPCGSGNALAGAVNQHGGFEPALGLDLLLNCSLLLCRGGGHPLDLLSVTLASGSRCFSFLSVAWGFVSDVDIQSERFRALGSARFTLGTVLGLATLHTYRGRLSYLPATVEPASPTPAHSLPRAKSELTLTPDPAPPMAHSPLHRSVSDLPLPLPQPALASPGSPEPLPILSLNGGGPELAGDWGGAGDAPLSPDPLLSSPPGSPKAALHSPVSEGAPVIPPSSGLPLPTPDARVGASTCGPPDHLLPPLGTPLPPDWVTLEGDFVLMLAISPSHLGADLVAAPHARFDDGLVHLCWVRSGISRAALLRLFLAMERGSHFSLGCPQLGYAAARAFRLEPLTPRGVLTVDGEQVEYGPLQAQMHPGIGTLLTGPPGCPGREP
In short: as §1

[3] = patients, 1-yr trial; cited from earlier work

T1 sequence (Q9NYA1 whole entry): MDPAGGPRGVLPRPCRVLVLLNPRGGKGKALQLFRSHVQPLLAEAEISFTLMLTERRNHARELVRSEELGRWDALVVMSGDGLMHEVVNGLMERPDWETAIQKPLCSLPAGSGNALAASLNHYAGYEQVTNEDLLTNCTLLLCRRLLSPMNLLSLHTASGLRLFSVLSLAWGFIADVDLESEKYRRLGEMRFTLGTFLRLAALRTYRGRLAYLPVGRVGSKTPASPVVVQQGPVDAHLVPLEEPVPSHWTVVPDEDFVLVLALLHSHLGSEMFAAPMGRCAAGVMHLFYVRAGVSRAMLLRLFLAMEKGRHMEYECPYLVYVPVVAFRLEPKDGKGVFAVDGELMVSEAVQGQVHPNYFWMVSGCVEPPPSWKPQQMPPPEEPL

Ki [1] [µM] | Ki [2] [µM] | Structure (SMILES) | modest hypertension [3]
> 10 | > 10 | C=CCOc1ccc(-c2noc([C@@H]3CCCN3C(=N)N)n2)cc1C(F)(F)F [Compound 77A, (S)-2-(3-(4-(allyloxy)-3-(trifluoromethyl)phenyl)-1,2,4-oxadiazol-5-yl)pyrrolidine-1-carboximidamide hydrochloride] | –
> 10 | < 1 | CCCC/C=C/COc1ccc(-c2noc([C@@H]3CCCN3C(=N)N)n2)cc1C(F)(F)F [Compound 78A, (S,E)-amino(2-(3-(4-(hept-2-en-1-yloxy)-3-(trifluoromethyl)phenyl)-1,2,4-oxadiazol-5-yl)pyrrolidin-1-yl)methaniminium 2,2,2-trifluoroacetate] | –
> 10 | > 10 | C=CCCOc1ccc(-c2noc([C@@H]3CCCN3C(=N)N)n2)cc1C(F)(F)F [Compound 79A, (S)-2-(3-(4-(but-3-en-1-yloxy)-3-(trifluoromethyl)phenyl)-1,2,4-oxadiazol-5-yl)pyrrolidine-1-carboximidamide hydrochloride] | –
> 10 | 1 to 10 | CCCC=CCOc1ccc(-c2noc([C@@H]3CCCN3C(=N)N)n2)cc1C(F)(F)F [Compound 80A, (S)-amino(2-(3-(4-(hex-2-en-1-yloxy)-3-(trifluoromethyl)phenyl)-1,2,4-oxadiazol-5-yl)pyrrolidin-1-yl)methaniminium 2,2,2-trifluoroacetate] | –
> 10 | < 1 | CCCCC=CCOc1ccc(-c2noc([C@@H]3CCCN3C(=N)N)n2)cc1C(F)(F)F [Compound 81A, (S)-amino(2-(3-(4-(hept-2-en-1-yloxy)-3-(trifluoromethyl)phenyl)-1,2,4-oxadiazol-5-yl)pyrrolidin-1-yl)methaniminium 2,2,2-trifluoroacetate] | –
> 10 | < 1 | CCCCCC=CCOc1ccc(-c2noc([C@@H]3CCCN3C(=N)N)n2)cc1C(F)(F)F [Compound 82A, (S)-amino(2-(3-(4-(oct-2-en-1-yloxy)-3-(trifluoromethyl)phenyl)-1,2,4-oxadiazol-5-yl)pyrrolidin-1-yl)methaniminium 2,2,2-trifluoroacetate] | –
> 10 | < 1 | CCC/C=C\CCOc1ccc(-c2noc([C@@H]3CCCN3C(=N)N)n2)cc1C(F)(F)F [Compound 84A, (S,Z)-amino(2-(3-(4-(hept-3-en-1-yloxy)-3-(trifluoromethyl)phenyl)-1,2,4-oxadiazol-5-yl)pyrrolidin-1-yl)methaniminium 2,2,2-trifluoroacetate] | –
> 10 | < 1 | CCCC/C=C\CCOc1ccc(-c2noc([C@@H]3CCCN3C(=N)N)n2)cc1C(F)(F)F [Compound 85A, (S,Z)-amino(2-(3-(4-(oct-3-en-1-yloxy)-3-(trifluoromethyl)phenyl)-1,2,4-oxadiazol-5-yl)pyrrolidin-1-yl)methaniminium 2,2,2-trifluoroacetate] | –
> 10 | < 1 | N=C(N)N1CCC[C@H]1c1nc(-c2ccc(OC/C=C/c3cccc(Br)c3)c(C(F)(F)F)c2)no1 [Compound 86A, (S,E)-2-(3-(4-((3-(3-bromophenyl)allyl)oxy)-3-(trifluoromethyl)phenyl)-1,2,4-oxadiazol-5-yl)pyrrolidine-1-carboximidamide hydrochloride] | –
> 10 | < 1 | N=C(N)N1CCC[C@H]1c1nc(-c2ccc(OC/C=C/c3ccc(F)cc3)c(C(F)(F)F)c2)no1 [Compound 87A, (S,E)-2-(3-(4-((3-(4-fluorophenyl)allyl)oxy)-3-(trifluoromethyl)phenyl)-1,2,4-oxadiazol-5-yl)pyrrolidine-1-carboximidamide hydrochloride] | –
> 10 | < 1 | N=C(N)N1CCC[C@H]1c1nc(-c2ccc(OCC/C=C/c3ccc(C(F)(F)F)cc3)c(C(F)(F)F)c2)no1 [Compound 91A, (S,E)-2-(3-(3-(trifluoromethyl)-4-((4-(4-(trifluoromethyl)phenyl)but-3-en-1-yl)oxy)phenyl)-1,2,4-oxadiazol-5-yl)pyrrolidine-1-carboximidamide hydrochloride] | –
> 10 | > 10 | CC(C)=CCC/C(C)=C/COc1ccc(-c2noc([C@@H]3CCCN3C(=N)N)n2)cc1C(F)(F)F [Compound 93A, (S,E)-(2-(3-(4-((3,7-dimethylocta-2,6-dien-1-yl)oxy)-3-(trifluoromethyl)phenyl)-1,2,4-oxadiazol-5-yl)pyrrolidin-1-yl)(13-iodanylidene)methanamine hydrochloride] | –

The remaining lines, values behind:

Structure (SMILES) | Ki [1] [µM] | Ki [2] [µM] | modest hypertension [3]
CCCCCCCCn1cc(-c2noc([C@@H]3CCCN3C(=N)N)n2)c2ccccc21 [Compound 74A, (S)-amino(2-(3-(1-octyl-1H-indol-3-yl)-1,2,4-oxadiazol-5-yl)pyrrolidin-1-yl)methaniminium chloride] | > 10 | 1 to 10 | –
CCCCCCCCn1ccc2ccc(-c3noc([C@@H]4CCCN4C(=N)N)n3)cc21 [Compound 75A, (S)-amino(2-(3-(1-octyl-1H-indol-6-yl)-1,2,4-oxadiazol-5-yl)pyrrolidin-1-yl)methaniminium chloride] | > 10 | > 10 | –
N=C(N)N1CCC[C@H]1c1nc(-c2ccc(CCC3CCCCC3)c(C(F)(F)F)c2)no1 [Compound 76A, (S)-amino(2-(3-(4-(2-cyclohexylethyl)-3-(trifluoromethyl)phenyl)-1,2,4-oxadiazol-5-yl)pyrrolidin-1-yl)methaniminium 2,2,2-trifluoroacetate] | > 10 | < 1 | –
N=C(N)N1CCC[C@H]1c1nc(-c2ccc(OC/C=C/c3ccc(C(F)(F)F)cc3)c(C(F)(F)F)c2)no1 [Compound 88A, (S,E)-amino(2-(3-(3-(trifluoromethyl)-4-((3-(4-(trifluoromethyl)phenyl)allyl)oxy)phenyl)-1,2,4-oxadiazol-5-yl)pyrrolidin-1-yl)methaniminium 2,2,2-trifluoroacetate] | > 10 | < 1 | –
N=C(N)N1CCC[C@H]1c1nc(-c2ccc(OC/C=C/c3ccccc3C(F)(F)F)c(C(F)(F)F)c2)no1 [Compound 89A, (S,E)-2-(3-(3-(trifluoromethyl)-4-((3-(2-(trifluoromethyl)phenyl)allyl)oxy)phenyl)-1,2,4-oxadiazol-5-yl)pyrrolidine-1-carboximidamide hydrochloride] | > 10 | > 10 | –
N=C(N)N1CCC[C@H]1c1nc(-c2ccc(OC/C=C/c3cccc(C(F)(F)F)c3)c(C(F)(F)F)c2)no1 [Compound 90A, (S,E)-amino(2-(3-(3-(trifluoromethyl)-4-((3-(3-(trifluoromethyl)phenyl)allyl)oxy)phenyl)-1,2,4-oxadiazol-5-yl)pyrrolidin-1-yl)methaniminium 2,2,2-trifluoroacetate] | > 10 | < 1 | –
N=C(N)N1CCC[C@H]1c1nc(-c2ccc(OC/C=C\c3ccc(C(F)(F)F)cc3)c(C(F)(F)F)c2)no1 [Compound 92A, (S,Z)-amino(2-(3-(3-(trifluoromethyl)-4-((3-(4-(trifluoromethyl)phenyl)allyl)oxy)phenyl)-1,2,4-oxadiazol-5-yl)pyrrolidin-1-yl)methaniminium 2,2,2-trifluoroacetate] | > 10 | < 1 | –
CCCOc1ccc(CCc2ccc(-c3noc([C@@H]4CCCN4C(=N)N)n3)cc2C(F)(F)F)cc1 [Compound 94A, (S)-2-(3-(4-(4-propoxyphenethyl)-3-(trifluoromethyl)phenyl)-1,2,4-oxadiazol-5-yl)pyrrolidine-1-carboximidamide hydrochloride] | > 10 | < 1 | –
N=C(N)N1CC[C@H](O)[C@H]1c1nc(-c2ccc(OCCCC3CCCCC3)c(C(F)(F)F)c2)no1 [Compound 95A, amino((2S,3S)-2-(3-(4-(3-cyclohexylpropoxy)-3-(trifluoromethyl)phenyl)-1,2,4-oxadiazol-5-yl)-3-hydroxypyrrolidin-1-yl)methaniminium chloride] | 1 to 10 | < 1 | –
N=C(N)N1CC[C@H](O)[C@H]1c1nc(-c2ccc(OCC3CCCCC3)c(C(F)(F)F)c2)no1 [Compound 96A, amino((2S,3S)-2-(3-(4-(cyclohexylmethoxy)-3-(trifluoromethyl)phenyl)-1,2,4-oxadiazol-5-yl)-3-hydroxypyrrolidin-1-yl)methaniminium chloride] | < 1 | < 1 | –
CCCCCCCCc1ccc(CCC(N)(CO)CO)cc1 [fingolimod, 2-amino-2-[2-(4-octylphenyl)ethyl] propane 1,3-diol] | – | – | 2-3 mmHg

— patent publication US10100022B2, “Sphingosine kinase inhibitors” (University of Virginia Patent Foundation, priority 2014, dated 2018)
